Tested on: Sprague Dawley (SD) rats
Assay: Effects of compounds for reducing urinary phosphate levels in rats fed treatment diet
Type: in vivo, rat
Settings: male SD rats; for Urinary Phosphate: urine collected on days 5 and 6
Description: House male Sprague Dawley (SD) rats were used for the experiments. The rats were placed singly in wire-bottom cages, fed with Purina 5002 diet, and allowed to acclimate for at least 5 days prior to experimental use.
To establish baseline phosphorus excretion, the rats were placed in metabolic cages for 48 hours. Their urine was collected and its phosphorus content analyzed with a Hitachi analyzer to determine phosphorus excretion in mg/day. Any rats with outlying values were excluded; and the remainder of the rats was distributed into groups.
Purina 5002 was used as the standard diet. The compound or compound mixture being tested was mixed with Purina 5002 to result in a final concentration 0.5% (or as indicated in the table) by weight. Cellulose at 0.5% by weight was used as a negative control. For each rat, 200 g of diet was prepared.
Each rat was weighed and placed on the standard diet. After 4 days the standard diet was replaced with the treatment diet (or control diet for the control group). On days 5 and 6, urine samples from the rats at 24 hours (+/−30 minutes) were collected and analyzed. The test rats were again weighed, and any weight loss or gain was calculated. Any remaining food was also weighed to calculate the amount of food consumed per day. A change in phosphorus excretion relative to baseline and cellulose negative control was calculated using Excel program.

[1] = 0.5% of diet, urinary phosphorus excretion relative to baseline and cellulose negative control
[2] = compound mixed with Purina 5002 diet at 0.5% by weight

| Compound | % Control [1] [%] | Urinary Phosphate [2] [mg/day] | % Control (0.30% of diet, relative to baseline and cellulose negative control) [%] | Urinary Phosphate (0.30% of diet) [mg/day] | % Control (0.5% of diet, urinary phosphorus excretion relative to baseline and cellulose negative control, listed as Iron(II) Acetate) [%] | % Control (0.7% of diet, relative to baseline and cellulose negative control) [%] | Urinary Phosphate (0.7% of diet) [mg/day] | Urinary Phosphate (compound mixed with Purina 5002 diet at 0.5% by weight, listed as Iron(II) Acetate) [mg/day] |
| --- | --- | --- | --- | --- | --- | --- | --- | --- |
| O=C([O-])C(=O)[O-].[Fe+2] [Iron(II) oxalate, iron(II) oxalate] | 89.0 | 14.8 |  |  |  |  |  |  |
| CC(=O)[O-].CC(=O)[O-].[Fe+2] [Iron(II) acetate, iron(II) acetate] | 65.9 | 12.8 | 67.4 | 12.1 | 69.1 | 44.4 | 8.0 | 12.4 |
| CC(=O)/C=C(/C)O.CC(=O)/C=C(/C)O.[Fe] [Fe(II) acetylacetonato] | 55.6 | 10.4 |  |  |  |  |  |  |
| [Fe+2].[O-2] [Iron(II)oxide, iron(II) oxide] | 104.3 | 20.2 |  |  |  |  |  |  |
| (+)-iron(II) L-ascorbate | 78.6 | 13.4 |  |  |  |  |  |  |
